COc1cc(C2Oc3cc(C4Oc5cc(O)cc(O)c5C(=O)C4O)ccc3OC2CO)ccc1O (stereo not given)
Conditions	solubility (mole fraction)
in PEG-400, 298.15 K	0.24
in PEG-400, 303.15 K	0.26
in PEG-400, 313.15 K	0.29
in PEG-400, 323.15 K	0.34
in PEG-400, 333.15 K	0.38

solubility (mole fraction)
Conditions	298.15 K	303.15 K	313.15 K	323.15 K	333.15 K
in ethanol	0.0167	0.0174	0.0193	0.0208	0.0227
in isopropanol	0.00448	0.00477	0.00524	0.00593	0.00662
in water	1.46e-05	1.68e-05	2.09e-05	2.54e-05	3.06e-05

— BigSolDB 2.1
